Measured values from patent US20050031598A1, “Engineering three-dimensional tissue structures using differentiating embryonic stem cells” (priority 2002, published 2005).

What was measured:
Format in all cases: cell-based, human
[1] = tested on: differentiating hES cells (EB day 8); experiment: RT-PCR gene expression analysis of hES cell constructs on PLLA/PLGA scaffolds; conditions: scaffold constructs, two weeks
Experimental: (§1) For seeding in matrigel, 8-9 days-old EBs were trypsinized, and 0.8×10^6 cells were mixed in 25 μL of a 50% (vol/vol) media and matrigel (growth factor-reduced, BD Biosciences, Bedford, Mass.). EB media was supplemented with the following growth factors: TGF-β1 (2 ng/mL), activin-A (20 ng/mL), and IGF-I (10 ng/mL), (R&D Systems, Minneapolis, Minn.), and RA (300 ng/ml) (Sigma). The mixture was solidified in a 6-well Petri dish at 37° C. and then detached from the dish with sterile blades. 4 mL of each respective EB media was added. For seeding on scaffolds, 0.8×10^6 cells were seeded into each scaffold using 25 μL of a mixture containing 50% (vol/vol) of Growth Factor-Reduced Matrigel and the respective EB media. After seeding the cells, scaffolds were suspended in 6-well petri dishes in their respective media. For some experiments, scaffolds were soaked in 50 μg/mL of fibronectin (Sigma) for 1 hour and washed in PBS prior to direct cell seeding (without matrigel) in 25 μL of EB media.
Total RNA was isolated by an RNEasy Mini Kit (Qiagen, Chatsworth, Calif.). […] For some gels including RNA amplified using a GADPH primer, semi-quantitative analysis was performed by measuring the mean pixel intensities of each band and normalizing the measured intensity to the mean pixel intensity of the GADPH band.

[2] = tested on: differentiating hES cells (EBs day 8); experiment: Differentiation of hES cells in matrigel alone; conditions: for shape of cell-matrigel structure: two weeks in suspension
Experimental: as §1
(§2) Tissue constructs were fixed for 6 hours in 10% neutral buffered formalin, routinely processed, and embedded in paraffin. 5-μm thick transverse sections were placed on silanized slides for immunohistochemistry or staining with hematoxylin and eosin (H & E), trichrome, or Safranin O. Immunohistochemical staining was carried out using the Biocare Medical Universal HRP-DAB kit (Biocare Medical, Walnut Creek, Calif.) according to the manufacturer's instructions, with prior heat-treatment at 90° C. for 20 minutes in ReVeal buffer (Biocare Medical) for epitope recovery. The primary antibodies were mouse anti-human: desmin (1:150), alpha feto protein (1:2500), cytokeratin 7 (1:25), CD31 (1:20), albumin (1:100), vimentin (1:50), S100 (1:100) (all from Dako), anti-human βIII-tubulin (Sigma, 1:500), nestin (Transduction Laboratories, San Diego, Calif., 1:1000), CD34 (Labvision, Fremont, Calif., 1:20), SSEA4 (Hybridoma Bank, University of Iowa, Ames, 1:4), and Tra 1-60 (a gift from Peter Andrews, University of Sheffield, Sheffield, U.K., 1:10). Human and mouse tissues (Daks) were used as controls to ensure antibody specificity (FIG. 1). For proliferation studies, culture medium was incubated with […] of 5′-bromo-2′-deoxyuridine (BrdUrd) (Sigma) for 3 hours before fixation. Tissue sections were stained using mouse anti-BrdUrd antibodies (1:1000).

[3] = tested on: differentiating hES cells (EB day 8); experiment: Histochemical and immunohistochemical staining of hES cell constructs on PLLA/PLGA scaffolds; conditions: scaffold constructs, two weeks; for alpha feto protein (AFP) and albumin staining: in comparison to the control
Experimental: as §1, §2

[4] = tested on: differentiating hES cells (EB day 8); experiment: Lumen diameters of tubulocystic structures lined by cytokeratin-positive epithelium in hES cell-scaffold constructs; conditions: scaffold constructs grown two weeks, IGF-I 10 ng/mL, mean ±SD; for percentage of lumens >40 μm of total number of lumens (tubulocystic structures): RA 300 ng/ml, control 65%±4
Experimental: as §1
(§3) Tissue constructs were fixed for 6 hours in 10% neutral buffered formalin, routinely processed, and embedded in paraffin. 5-μm thick transverse sections were placed on silanized slides for immunohistochemistry or staining with hematoxylin and eosin (H & E), trichrome, or Safranin O. Immunohistochemical staining was carried out using the Biocare Medical Universal HRP-DAB kit (Biocare Medical, Walnut Creek, Calif.) according to the manufacturer's instructions, with prior heat-treatment at 90° C. for 20 minutes in ReVeal buffer (Biocare Medical) for epitope recovery. […]
Constructs grown for two weeks in control medium or in the presence of IGF or RA were processed and stained with anti-cytokeratin antibody as described above. Tubulocystic structures were counted and lumen diameters measured and grouped (large>200 μm, medium (Med)>40 μm, small<[…], closed and multilayered lumens). The results, the mean values (±SD) of samples obtained in two different experiments performed in duplicate, were recorded as percentages of lumens in each group from total number of lumens in each sample.

hEBs (day 8) = experiment: Staining of hEBs incubated with growth factors; conditions: EBs conditioned with growth factor
Experimental: FIG. 4 includes light micrographs of 5-μm-thick sections taken from hEBs (day 8), incubated for additional 2 weeks with control medium (CON) or medium supplemented with retinoic acid (RA), or insulin-like growth factor (IGF), and stained with antibodies against human cytokeratin, α-feto-protein, and nestin (scale bars=200 μm.)
hES cells (H9 clone) were grown on mouse embryonic fibroblasts (Cell Essential, Boston, Mass.) in KnockOut Medium (Gibco-BRL, Gaithersburg, Md.), a modified version of Dulbeco's modified Eagle's medium optimized for ES cells, as described^5. To induce formation of EBs, hES cell colonies were dissociated with 1 mg/ml collagenase type IV and suspended in differentiation media without LIF and bFGF in Petri dishes^5.
as §3

Q: Which results are given for activin-A?
A: expression of pancreatic gene PDX-1 ([1]; versus other growth factors): higher levels; AFP expression/staining ([2]; two weeks): No AFP expression was observed; cellular viability ([2]; two weeks): least cellular viability; epithelial-lined tubular or cystic structures (histology) ([2]; two weeks): did not contain any such structures; shape of cell-matrigel structure [2]: small, condensed spheres; Safranin-O staining for glycosaminoglycans (cartilage extracellular matrix) [3]: did not induce formation of Safranin O-positive matrix; alpha feto protein (AFP) and albumin staining [3]: high levels of alpha feto protein (AFP) and albumin throughout the sample

Q: Which results are given for CC1=C(/C=C/C(C)=C/C=C/C(C)=C/C(=O)O)C(C)(C)CCC1 [RA, retinoic acid, reference compound]?
A: percentage of lumens >40 μm of total number of lumens (tubulocystic structures) [4]: 25%±12; increase in total percentage of cytokeratin-positive areas within the tissue ([3]; versus control medium, P<0.01): ~4 fold

Q: Which “percentage of lumens >40 μm of total number of lumens (tubulocystic structures)” value [4] does the source give for “IGF: insulin growth factor IGF-I, 10 ng/mL (R&D Systems)” here?
A: The value was 84%±6.

Q: And the “percentage of lumens >200 μm of total number of lumens (tubulocystic structures)” value [4]?
A: The value was 10%±3.

Q: What about the AFP expression/staining ([2]; two weeks) of the same compound?
A: The AFP expression/staining was “some AFP staining could be observed”.

Q: And the “epithelial-lined tubular or cystic structures (histology)” value ([2]; two weeks)?
A: The value was “occasional epithelial-lined tubular or cystic structures”.

Q: What about the “shape of cell-matrigel structure” value [2] of the same compound?
A: Its value is “larger and less condensed”.

Q: What about the “Safranin-O staining for glycosaminoglycans (cartilage extracellular matrix)” value [3] of the same compound?
A: Its value is “did not induce formation of Safranin O-positive matrix”.

Q: And the “alpha feto protein (AFP) and albumin staining” value [3]?
A: Its value is “high levels of AFP and albumin in more defined areas”.

Q: How did the safranin-O staining (hEBs (day 8)) turn out when “TGF-β: transforming growth factor beta, TGF-β1, 2 ng/mL (R&D Systems)” was run?
A: The safranin-O staining was “no safranin-O staining was observed”.

Q: What about the “cartilage matrix protein (CMP) expression” value ([1]; compared to the other samples) of the same compound?
A: The value was “higher levels”.

Q: What about the “Safranin-O staining of cartilage-derived GAG” value ([2]; two weeks) of the same compound?
A: Its value is “No Safanin-O staining”.

Q: And the “epithelial-lined tubular or cystic structures (histology)” value ([2]; two weeks)?
A: The value was “did not contain any such structures”.

Q: What about the “Safranin-O staining for glycosaminoglycans (cartilage extracellular matrix)” value [3] of the same compound?
A: Its value is “high levels of Safranin-O staining”.

Q: And the “collagen formation (trichrome staining)” value [3]?
A: Its value is “induced mature collagen formation”.
